# According to US20240180865A1, “SUSTAINED-RELEASE LIPID PRE-CONCENTRATE” (TIONLAB THERAPEUTICS, priority 2021, published 2024):
# Test: Peroxide value of liquid crystal former according to type of stabilizer
# Type: physicochemical
# Conditions: 0.3 g stabilizer in 3 g safflower oil, castor oil, cottonseed oil or oleic acid; 60° C. for two weeks
# Method: 0.3 g of each of tocopherol, ViC_palmitate, mannitol, and ViC_Na was added as stabilizers to 3 g of each of safflower oil, castor oil, cottonseed oil, and oleic acid. After the resulting mixture was heated at 45 to 60° C. after DI treatment, it was cooled to room temperature and left to stand for 3 hours.
# The degree of rancidity was evaluated by allowing the mixture to stand under harsh conditions of 60° C. for two weeks to measure the peroxide value of the liquid crystal former.
# In order to measure the peroxide value, 0.3 g of the sample was weighed into a 300-ml Erlenmeyer flask, and then 30 ml of a solution of chloroform:glacial acetic acid (2:3) was added thereto. After a temporary dark place was created with silver foil paper, 1 ml of a KI saturated solution was added, and the resulting mixture was shaken vigorously, and then left to stand in the dark place for 5 minutes. Thereafter, 30 ml of distilled water was again added thereto, 1 ml of a 1% starch solution was added thereto, and then the resulting mixture was vigorously mixed. Thereafter, the mixture was titrated with a 0.01 N-Na2S2O3 standard solution while stirring with a magnetic stirrer, and the end point was set to the time when the dark blue color of the starch disappeared. Thereafter, the peroxide value of the sample was determined using the following equation. […]
row,Compound,peroxide value of the liquid crystal former
1,"CCCCCCCCCCCCCCCC(=O)OC[C@H](O)[C@H]1OC(=O)C(O)=C1O [ViC_palmitate, ascorbic palmitate]",the peroxide values of all the liquid crystal formers used in this test example were low
2,tocopherol,the peroxide value is higher than when no stabilizer is used
